Experimental findings from ChEMBL document CHEMBL1131733, “Dual-acting agents with alpha1-adrenoceptor antagonistic and steroid 5alpha-reductase inhibitory activities. Synthesis and evaluation of arylpiperazine derivatives” (Bioorg Med Chem Lett, 1999) are described below.

A short description of assay [1]: Antagonistic Alpha-1 adrenergic receptor activity against phenylephrine-induced contraction of rabbit prostate. In kind it is functional, Oryctolagus cuniculus.
The target in assay [2] is T1, Steroid 5-alpha-reductase (Rattus norvegicus, UniProt P24008+P31214).
T1 sequence (P24008 whole entry): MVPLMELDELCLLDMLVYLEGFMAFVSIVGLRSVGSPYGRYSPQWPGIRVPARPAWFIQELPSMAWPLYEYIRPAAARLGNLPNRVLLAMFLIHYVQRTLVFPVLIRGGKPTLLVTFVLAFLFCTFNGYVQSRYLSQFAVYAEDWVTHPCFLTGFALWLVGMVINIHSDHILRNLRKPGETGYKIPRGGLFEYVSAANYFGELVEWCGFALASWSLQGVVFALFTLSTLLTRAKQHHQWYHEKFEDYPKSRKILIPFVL
T1 sequence (P31214 whole entry): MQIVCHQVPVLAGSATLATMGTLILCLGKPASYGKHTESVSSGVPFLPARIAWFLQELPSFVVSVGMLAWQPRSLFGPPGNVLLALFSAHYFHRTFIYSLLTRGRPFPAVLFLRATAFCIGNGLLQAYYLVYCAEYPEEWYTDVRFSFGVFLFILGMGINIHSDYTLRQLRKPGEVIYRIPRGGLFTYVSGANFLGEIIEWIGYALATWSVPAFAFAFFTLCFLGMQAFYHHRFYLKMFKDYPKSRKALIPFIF
In words: Inhibition of Steroid 5-alpha-reductase from Dawley rat prostate. In kind it is tissue-based, Prostate gland.

Assay [3] deals with Steroid 5-alpha-reductase (Rattus norvegicus) (UniProt P24008+P31214). In words: Inhibitory effect on prostatic Steroid 5-alpha-reductase, 2 hours after oral administration.
For another assay, the system named is Oryctolagus cuniculus. Briefly: Dose required to inhibit increase in urethral pressure induced by phenylephrine in anesthetized rabbits by iv administration. The format is functional.

SMILES strings stand for the structures.

On to `COc1ccccc1N1CCN(CCCOc2ccc(C(=O)c3cn(CCCC(=O)O)c4ccccc34)cc2OCc2ccccc2)CC1`, for which, in assay [1], the pA2 (commonly a measure of antagonist potency on a negative log scale) is 7. In addition, in assay [2], the IC50 (as a rule, the concentration that inhibits the measured activity by half) was determined as 360 nM.
`CCCOc1ccccc1N1CCN(CCCOc2cc(C(=O)c3cn(CCCC(=O)O)c4ccccc34)ccc2OCc2ccc(C)cc2)CC1` returned a pA2 in assay [1] of 6.8. Further, in assay [2], the 50% inhibitory concentration (IC50) stood at 3 nM.
The like results for `CCc1ccc(COc2ccc(C(=O)c3cn(CCCC(=O)O)c4ccccc34)cc2OCCCN2CCN(c3ccccc3OC)CC2)cc1` were, in that order, 6.6 and 4 nM.
The compound `COc1ccccc1N1CCN(CCCOc2cc(C(=O)Nc3ccccc3OCCCC(=O)O)ccc2OCc2ccccc2)CC1` registered a pA2 in assay [1] of 8. This compound yielded an IC50 in assay [2] of 490 nM.
In turn, `COc1ccccc1N1CCN(CCCNc2cc(=O)n(C)c(=O)n2C)CC1` showed a pA2 in assay [1] of 7.1.
Compound `CC(C)Cc1ccc(C(Nc2cccc(C(=O)c3cn(CCCC(=O)O)c4ccccc34)c2)c2ccc(CC(C)C)cc2)cc1` registered an IC50 in assay [2] of 4.2 nM.
As to `COc1ccccc1N1CCN(CCC(Oc2ccc(C(=O)Nc3ccccc3OCCCC(=O)O)cc2)c2ccc(C)cc2)CC1` (centres undefined), the pA2 in assay [1] worked out at 7.8.
Compound `COc1ccccc1N1CCN(CCOc2cc(C(=O)c3cn(CCCC(=O)O)c4ccccc34)ccc2OCc2ccc(C)cc2)CC1` yielded a pA2 in assay [1] of 6.8. Besides, the IC50 in assay [2] is on record as 4.8 nM.
In assay [1], `COc1ccccc1N1CCN(CCCOc2ccc(C(=O)Nc3ccccc3OCCCC(=O)O)cc2OCc2ccccc2)CC1` gave a pA2 of 7.2. In assay [2], this compound returned an IC50 of 3500 nM.
`COc1ccccc1N1CCN(CCC(Oc2ccc(C(=O)Nc3ccccc3OCCCC(=O)O)cc2)c2ccccc2)CC1` (centres undefined) yielded a pA2 in assay [1] of 7.6. Also, the IC50 in assay [2] is reported as 920 nM.
The like results for `COc1ccccc1N1CCN(CCCOc2cc(C(=O)c3cn(CCCC(=O)O)c4ccccc34)ccc2OCc2ccc(C)cc2)CC1` were, in that order, 7.7 and 3.5 nM.
The matching figures for `Cc1ccc(COc2ccc(C(=O)c3cn(CCCC(=O)O)c4ccccc34)cc2OCCCN2CCN(c3ccccc3OC(C)C)CC2)cc1`: 6.8 and 2.9 nM.
Regarding `COc1ccccc1N1CCN(CCCOc2cc(C(=O)c3cn(CCCC(=O)O)c4ccccc34)ccc2OCc2ccccc2)CC1`, in assay [1], the pA2 was determined as 7.8. Besides, the IC50 in assay [2] came to 11 nM.
Regarding `CCOc1ccccc1N1CCN(CCCOc2cc(C(=O)c3cn(CCCC(=O)O)c4ccccc34)ccc2OCc2ccc(C)cc2)CC1`, it took a dose of 7.9 mg/kg to reach the 50% effect level in assay [3] (ED50). Moreover, in assay [1], the pA2 amounted to 7.5. In assay [2], this compound returned an IC50 of 1.5 nM. This compound had a Dose in the assay on Oryctolagus cuniculus of 0.3 mg/kg.
Take `COc1ccccc1N1CCN(CCCCOc2cc(C(=O)c3cn(CCCC(=O)O)c4ccccc34)ccc2OCc2ccc(C)cc2)CC1`: the pA2 in assay [1] is 6.7. The IC50 in assay [2] worked out at 1.5 nM.
